Source: patent US20250122192A1, “5-PYRIMIDINECARBOXAMIDE DERIVATIVES AND METHODS OF USING THE SAME” (Rgenta Therapeutics, Inc., priority 2021, published 2025)
Structures can show the parent of a compound that is named as a salt.

System: PMS1
Assay: Mini-gene reporter assay-PMS1
Type: cell-based
Details: Homo sapiens; for IC50: HEK293, PMS1 mini-gene firefly luciferase reporter transiently transfected into HEK293 cells, read-out: PMS1 IC50; for activation at 5 µM: PMS1 mini-gene firefly luciferase reporter in HEK293 cells, read-out: PMS1% Effect at 5 μM
Description: Biological Activity of the Compounds of the Present Disclosure Mini-gene reporter assay-PMS1
Mini-gene reporter constructs for each target site can be constructed by first PCR amplifying the region-of-interest including the sequence of the alternatively skipped, sequences of the immediate upstream and downstream introns, and sequences of the immediate upstream and downstream exons. Then the 3′end of the amplified sequence can be ligated to a firefly luciferase reporter gene and cloned into the pcDNA3.1 vector backbone. The final reporter construct can be transiently transfected into HEK293 cells using Lipofectamine 3000 transfection reagents. Compounds that can induce the inclusion of the skipped exon in the reporter construct would increase the reporter firefly luciferase activity.
Test compounds may be diluted in duplicates and dispensed into an assay plate. Transient mini-gene reporter cell line stock is resuspended and dispensed into the assay plate. Assay plates are then centrifuged and incubated. A luciferase reagent (e.g. ONE-Glo firefly luciferase reagent from Promega®) may be added to the assay plate and the luminescence (RLU) signals recorded. PMS1 EC50 values may be determined by curve fitting in Levenberg-Marquardt algorithm.

Structure (SMILES) | IC50 [nM] | activation at 5 µM [%]
CCOc1nc(N2CCO[C@H]3CNC[C@H]32)ncc1C(=O)Nc1cn2cc(C)nc2c(C)n1 (racemic) [Compound 93] |  | < 50
CCOc1nc(N2CC3(CCNCC3)[C@H]3COC[C@H]32)ncc1C(=O)Nc1cc(F)c2nc(C)cn2c1 (racemic) [Compound 124] | > 3000 | 
CCOc1nc(N2CC[C@@H]3NCCC[C@@H]3C2)ncc1C(=O)Nc1cc(F)c2nc(C)cn2c1 (racemic) [Compound 139] | < 500 | 
CCOc1nc(N2CC[C@@H]3NCC(=O)N[C@@H]3C2)ncc1C(=O)Nc1cc(F)c2nc(C)cn2c1 (racemic) [Compound 170] |  | < 50
CCOc1nc(N(C)[C@@H]2CNC[C@H]2O)ncc1C(=O)Nc1cc(F)c2nc(C)cn2c1 (racemic) [Compound 174] | 1000 to 3000 | 
CCOc1nc(N2CCO[C@H]3CNC[C@H]32)ncc1C(=O)Nc1cc(F)c2nc(C)cn2c1 (racemic) [Compound 177] | 1000 to 3000 | 
CCOc1nc(N2CCC[C@H]3NCC[C@H]32)ncc1C(=O)Nc1cc(F)c2nc(C)cn2c1 (racemic) [Compound 178] | < 500 | 
CCOc1nc(N2C[C@@H]3CNC[C@]3(C)C2)ncc1C(=O)Nc1cc(F)c2nc(C)cn2c1 (racemic) [Compound 179] | < 500 | 
CCOc1nc(N2CC[C@H]3CCN[C@H]3C2)ncc1C(=O)Nc1cc(F)c2nc(C)cn2c1 (racemic) [Compound 198] | 1000 to 3000 | 
CCOc1nc(N2CC[C@@H]3CNC[C@@H]32)ncc1C(=O)Nc1cc(F)c2nc(C)cn2c1 (racemic) [Compound 209] | < 500 | 
CCOc1nc(N2C[C@H]3CNCC[C@H]32)ncc1C(=O)Nc1cc(F)c2nc(C)cn2c1 (racemic) [Compound 245] | < 500 | 
CCOc1nc(N2CCNC(CC(F)F)C2)ncc1C(=O)Nc1cc(F)c2nc(C)cn2c1 (single isomer, unassigned) [Compound 309] |  | 50 to 75
CCOc1nc(N2CC[C@@H](NC)C2)ncc1C(=O)Nc1cc(F)c2nc(C)cn2c1 (single isomer, unassigned) [Compound 311, hydrochloride] |  | > 75
CCOc1nc(N2CC[C@H](NC)C2)ncc1C(=O)Nc1cc(F)c2nc(C)cn2c1 (single isomer, unassigned) [Compound 312, hydrochloride] | < 500 | 

Continued, in another order:

IC50 [nM] | Structure (SMILES) | activation at 5 µM [%]
> 3000 | CCOc1nc(N2CC[C@@H]3CNC[C@@H]3C2)ncc1C(=O)Nc1cn2cc(C)nc2c(C)n1 (racemic) [Compound 29] | 
> 3000 | CCOc1nc(N2CC[C@@H]3NCCC[C@@H]3C2)ncc1C(=O)Nc1cn2cc(C)nc2c(C)n1 (racemic) [Compound 31] | 
500 to 1000 | CCOc1nc(N2CC[C@@H]3CNC[C@@H]32)ncc1C(=O)Nc1cn2cc(C)nc2c(C)n1 (racemic) [Compound 60] | 
1000 to 3000 | CCOc1nc(N2CC[C@@H]3NCC[C@@H]3C2)ncc1C(=O)Nc1cn2cc(C)nc2c(C)n1 (racemic) [Compound 90] | 
< 500 | CCOc1nc(N2C[C@H]3CNCC[C@H]32)ncc1C(=O)Nc1cn2cc(C)nc2c(C)n1 (racemic) [Compound 95] | 
< 500 | CCOc1nc(N2C[C@@H]3CNC[C@]3(C)C2)ncc1C(=O)Nc1cn2cc(C)nc2c(C)n1 (racemic) [Compound 98] | 
500 to 1000 | CCOc1nc(N2CCN[C@H]3CC[C@H]32)ncc1C(=O)Nc1cn2cc(C)nc2c(C)n1 (racemic) [Compound 101] | 
< 500 | CCOc1nc(N2C[C@H]3CNCC[C@H]3C2)ncc1C(=O)Nc1cn2cc(C)nc2c(C)n1 (racemic) [Compound 105] | 
500 to 1000 | CCOc1nc(N2CC[C@H]3CN[C@H]3C2)ncc1C(=O)Nc1cc(F)c2nc(C)cn2c1 (racemic) [Compound 169] | 
< 500 | CCOc1nc(N2CC[C@@H]3NCC[C@@H]3C2)ncc1C(=O)Nc1cc(F)c2nc(C)cn2c1 (racemic) [Compound 199] | 
